The values below come from patent publication US9056865B2, “Pyridine-2-derivatives as smoothened receptor modulators” (Pfizer Inc., priority 2010, dated 2015).

Where two headings read alike, the source gives them in different places.

A short description of the series: Assessment of brain penetration in rats. It is filed as in vivo. Conditions: rat. On the procedure: Assessment of Brain Penetration of A-116 in Rats
An in vivo study in rats was conducted to assess the extent of brain penetration of A-116. In this study, approximately 10-week-old (250 grams body weight) Wistar rats were dosed once with 10 mg/kg of A-116 subcutaneously. Three rats per group were euthanized 1 hour, 4 hours, and 7 hours post dose. The plasma, the whole brain, and the cerebral spinal fluid (CSF) were collected to determine the tissue concentrations using HPLC-MS/MS. At 1 hour, 4 hours and 7 hours, the respective brain concentrations were 201±52 ng/g, 224±231 ng/g, and 28 ng/g of tissue. The total plasma concentrations were 2240±296 ng/mL, 2220±1780 ng/mL, and 287±75 ng/mL at 1 hour, 4 hours and 7 hours, respectively. To calculate the unbound plasma concentrations, the total plasma concentrations were multiplied by 0.067, a previously determined unbound fraction of rat plasma protein binding. The resulting unbound plasma concentrations were 150±20 ng/mL (1 hour), 149±119 ng/mL (4 hours), and 19.2±5.0 ng/mL (7 hours). The respective CSF concentrations were 64.4±12.0 ng/mL, 72.1±71.9 ng/mL, and 3.9±2.3 ng/mL at 1 hour, 4 hours, and 7 hours post dose. […] To determine the extent of brain penetration, a ratio of the CSF concentration to the unbound plasma concentration was calculated. At 1 hour, 4 hours, and 7 hours, the ratios were 0.43±0.03, 0.44±0.1, and 0.19±0.06, respectively.

Turning to `Cc1cnc(-c2cc(N3CCN(C(=O)CCS(C)(=O)=O)CC3)ncc2Cl)c(C)c1` [Example A-116, 5′-chloro-3,5-dimethyl-2′-{4-[3-(methylsulfonyl)propanoyl]piperazin-1-yl}-2,4′-bipyridine], the Kp at 1 h (Wistar, CSF / unbound plasma, subcutaneous, 10 mg/kg, 1 hour, read-out: ratio of the CSF concentration to the unbound plasma concentration) was found to be 0.43 ± 0.03. For the same compound, the Kp at 4 h (Wistar, CSF / unbound plasma, subcutaneous, 10 mg/kg, 4 hours, read-out: ratio of the CSF concentration to the unbound plasma concentration) came out at 0.44 ± 0.1. In addition, the Kp at 7 h (Wistar, CSF / unbound plasma, subcutaneous, 10 mg/kg, 7 hours, read-out: ratio of the CSF concentration to the unbound plasma concentration) was found to be 0.19 ± 0.06. Also, the Kp (Wistar, CSF / unbound plasma, subcutaneous, 10 mg/kg, rats, within 4 hours post dose, read-out: unbound compound in the plasma able to cross the blood brain barrier) was approximately 0.4. In addition, the concentration at 1 h by setting is: (Wistar, subcutaneous, 10 mg/kg, total plasma concentration multiplied by 0.067, 1 hour, read-out: unbound plasma concentration) 150 ± 20 ng/mL; (CSF, sc, Wistar rats, 10 mg/kg subcutaneously, 1 hour, read-out: CSF concentration) 64.4 ± 12 ng/mL; (brain, sc, Wistar rats, 10 mg/kg subcutaneously, 1 hour, read-out: brain concentration) 201 ± 52 ng/g; (plasma, sc, Wistar rats, 10 mg/kg subcutaneously, 1 hour, read-out: total plasma concentration) 2240 ± 296 ng/mL. Further, the concentration at 4 h reads like this: (Wistar, subcutaneous, 10 mg/kg, total plasma concentration multiplied by 0.067, 4 hours, read-out: unbound plasma concentration) 149 ± 119 ng/mL; (CSF, sc, Wistar rats, 10 mg/kg subcutaneously, 4 hours, read-out: CSF concentration) 72.1 ± 71.9 ng/mL; (brain, sc, Wistar rats, 10 mg/kg subcutaneously, 4 hours, read-out: brain concentration) 224 ± 231 ng/g; (plasma, sc, Wistar rats, 10 mg/kg subcutaneously, 4 hours, read-out: total plasma concentration) 2220 ± 1780 ng/mL. Also, the concentration at 7 h by setting is: (Wistar, subcutaneous, 10 mg/kg, total plasma concentration multiplied by 0.067, 7 hours, read-out: unbound plasma concentration) 19.2 ± 5 ng/mL; (CSF, sc, Wistar rats, 10 mg/kg subcutaneously, 7 hours, read-out: CSF concentration) 3.9 ± 2.3 ng/mL; (brain, sc, Wistar rats, 10 mg/kg subcutaneously, 7 hours, read-out: brain concentration) 28 ng/g; (plasma, sc, Wistar rats, 10 mg/kg subcutaneously, 7 hours, read-out: total plasma concentration) 287 ± 75 ng/mL.
